The values below come from patent US10919852B2, “Immunomodulator compounds” (CHEMOCENTRYX, INC., priority 2017, dated 2021).

pIC50: −log10 of the molar value.

One may read the pIC50 as −log10 of the IC50, conventionally taken in molar units. Low readings indicate a high IC50, high ones a low IC50.

The test addresses human PD-L1 / Human PD-1 (Homo sapiens (Human), UniProt Q9NZQ7). Description: Enzyme-Linked Immunosorbent Assay (ELISA), PD-1/PD-L1 binding. The following applies: plate-coated human PD-L1, biotinylated human PD-1. In short, it runs like this:
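Compound dilutions (1:5 series) competed with 0.3 μg/mL biotin-labelled human PD-1 for PD-L1 immobilised at […], for 1 h at 37 °C. Read-out was A450 after streptavidin-HRP and a 20 min TMB reaction, stopped with 2 N H2SO4.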

human PD-L1 / Human PD-1, sequence (Q9NZQ7 19-239): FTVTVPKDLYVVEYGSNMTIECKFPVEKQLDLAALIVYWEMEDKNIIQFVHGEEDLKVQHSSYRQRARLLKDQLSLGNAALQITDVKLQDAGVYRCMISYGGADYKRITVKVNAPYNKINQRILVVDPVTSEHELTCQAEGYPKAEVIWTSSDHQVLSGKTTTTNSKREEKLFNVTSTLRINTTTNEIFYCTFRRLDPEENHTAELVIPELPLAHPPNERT

For the compound `N#Cc1cncc(COc2cc(O[C@H]3CCc4c(-c5cccc(OCCCN6CC(O)C6)c5C(F)(F)F)cccc43)c(Cl)cc2CNCC2CCC(=O)N2)c1` (stereo partly shown), the pIC50 is 6.30 to 8.30.

Turning to `Cc1c(OCCCN2CCC(O)CC2)cccc1-c1cccc2c1CC[C@@H]2Oc1cc(OCc2cncc(C#N)c2)c(CN[C@@H](CNC(=N)N)C(=O)O)cc1Cl`, the pIC50 is > 8.30.

Take `Cc1c(OCCCN2CCC(F)CC2)cccc1-c1cccc2c1CC[C@@H]2Oc1cc(OCc2cc(C#N)cc(C#N)c2)c(CNCC(=O)NS(C)(=O)=O)cc1Cl`: the negative logarithm of the IC50 (pIC50) is > 8.30.

For the compound `CCOc1cc(O[C@H]2CCc3c(-c4cccc(OCCCN5CCC(F)CC5)c4Cl)cccc32)c(Cl)cc1CN[C@@H]1CCOC[C@H]1O`, the pIC50 is 6.30 to 8.30.

Compound `N#Cc1cc(C#N)cc(COc2cc(O[C@@H]3c4cccc(-c5cccc(OCCCN6CCC(F)CC6)c5Cl)c4C[C@H]3F)c(Cl)cc2CNC[C@H]2CCC(=O)N2)c1` had a pIC50 of 6.30 to 8.30.

For `Cc1c(OCCCN2CCC(C)(F)CC2)cccc1-c1cccc2c1CC[C@@H]2Oc1cc(OCc2cc(C#N)cc(C#N)c2)c(CN[C@H]2CCC(=O)NC2)cc1Cl`, the pIC50 is 6.30 to 8.30.

`CCOc1cc(O[C@H]2CCc3c(-c4cccc(OCCCN5[C@H](C)CC[C@H]5C)c4C)cccc32)c(Cl)cc1CN1CCC[C@@H](C(=O)O)C1` showed a pIC50 of 6.30 to 8.30.

As to `N#Cc1cncc(COc2cc(O[C@H]3CCc4c(-c5cccc(OCCCN6CCC(F)CC6)c5Cl)cccc43)c(Cl)cc2CN[C@@H]2CCOC[C@H]2F)c1` [drawing 223], the pIC50 was 6.30 to 8.30.

Take `Cc1c(OCCCN2[C@H](C)CCC[C@@H]2C)cccc1-c1cccc2c1CC[C@@H]2Oc1cc(OCc2cc(C#N)cc(C#N)c2)c(CNC[C@H]2CCC(=O)N2)cc1Cl`: the pIC50 is 6.30 to 8.30.

`N#Cc1cncc(COc2cc(O[C@H]3CCc4c(-c5cccc(OCCCN6CC(F)(F)C6)c5Cl)cccc43)c(Cl)cc2CN[C@@H]2CCCC[C@@H]2O)c1` had a pIC50 of 6.30 to 8.30.

Consider `Cc1c(OCCCN2CCC(O)CC2)cccc1-c1cccc2c1CC[C@@H]2Oc1cc(OCc2cc(C#N)cc(C#N)c2)c(CN[C@@](C)(CO)C(=O)O)cc1Cl`, for which the pIC50 is > 8.30.

On to `CCOc1cc(O[C@H]2CCc3c(-c4cccc(OCCCN5CCC5(C)C)c4C)cccc32)c(Cl)cc1CN(C)CC(C)C(=O)O` (stereo partly shown), for which the pIC50 is 6.30 to 8.30.

Turning to `CC(C)(O)[C@H](NCc1cc(Cl)c(O[C@H]2CCc3c(-c4cccc(OCCCN5CCC(F)CC5)c4Cl)cccc32)cc1OCc1cncc(C#N)c1)C(=O)O`, the pIC50 is > 8.30.

For `Cc1c(OCCCN2CCC(O)CC2)cccc1-c1cccc2c1CC[C@@H]2Oc1cc(OCc2cncc(C#N)c2)c(CN[C@H](C(=O)O)[C@@H](C)O)cc1Cl`, the pIC50 is > 8.30.

Turning to `CC1(O)CN(CCCOc2cccc(-c3cccc4c3CC[C@@H]4Oc3cc(OCc4cncc(C#N)c4)c(CN[C@@](C)(CO)C(=O)O)cc3Cl)c2Cl)C1`, the pIC50 is > 8.30.

In the case of `CC(CO)(NCc1cc(Cl)c(O[C@H]2CCc3c(-c4cccc(OCCCN5CCOCC5)c4Cl)cccc32)cc1OCc1cncc(C#N)c1)C(=O)O` (stereo partly shown), the pIC50 is > 8.30.

For the compound `CCOc1cc(O[C@@H]2c3cccc(-c4cccc(OCCCN5CC(O)C5)c4Cl)c3C[C@@H]2F)c(Cl)cc1CN[C@@](C)(CO)C(=O)O`, the pIC50 is 6.30 to 8.30.

As to `N#Cc1cncc(COc2cc(O[C@H]3CCc4c(-c5cccc(OCCCN6CC7(CC(O)C7)C6)c5Cl)cccc43)c(Cl)cc2CN[C@@H]2CCC[C@@H]2O)c1`, the pIC50 is > 8.30.

In turn, `CCOc1cc(O[C@H]2CCc3c(-c4cccc(OCCCN5CCC5(C)C)c4C)cccc32)c(Cl)cc1CN1CC(C(=O)O)C1` gave a pIC50 of 6.30 to 8.30.

Compound `CCOc1cc(O[C@H]2CCc3c(-c4cccc(OCCCNC(C)(C)C)c4C)cccc32)c(Cl)cc1CN1CC(C(=O)O)C1` had a pIC50 of 6.30 to 8.30.

In the case of `Cc1c(OCCCN2CCCCC2)cccc1-c1cccc2c1CC[C@@H]2Oc1cc(OCc2cncc(C#N)c2)c(CNC[C@@H]2CCC(=O)N2)cc1Cl`, the pIC50 was > 8.30.

As to `Cc1c(OCCCN2CCC(O)CC2)cccc1-c1cccc2c1CC[C@@H]2Oc1cc(OCc2cncc(C#N)c2)c(CNCc2cn(C)cn2)cc1Cl`, the pIC50 was > 8.30.

The compound `Cc1c(OCCCN2CCC(C)(F)CC2)cccc1-c1cccc2c1C[C@@H](F)[C@@H]2Oc1cc(OCc2cc(C#N)cc(C#N)c2)c(CN[C@H]2CCC(=O)NC2)cc1Cl` had a pIC50 of 6.30 to 8.30.

`Cc1c(OCCCN2CCC(C)(F)CC2)cccc1-c1cccc2c1CC[C@@H]2Oc1cc(OCc2cc(C#N)cc(C#N)c2)c(CN2CCC3(C2)NC(=O)NC3=O)cc1Cl` (stereo partly shown) gave a pIC50 of 6.30 to 8.30.

As for `Cc1c(OCCCN2CCC(O)CC2)cccc1-c1cccc2c1CC[C@@H]2Oc1cc(OCc2cc(C#N)cc(C#N)c2)c(CN[C@@H]2CCCC[C@@H]2O)cc1Cl`, the pIC50 was > 8.30.

`Cc1c(OCCCN2CCC(O)CC2)cccc1-c1cccc2c1CC[C@@H]2Oc1cc(OCc2cncc(C#N)c2)c(CN[C@@H](CO)C(N)=O)cc1Cl`: the pIC50 was > 8.30.

Consider `CC1(F)CCN(CCCOc2cccc(-c3cccc4c3CC[C@@H]4Oc3cc(OCc4cncc(C#N)c4)c(CNC[C@@H]4CCC(=O)N4)cc3Cl)c2Cl)CC1`, for which the pIC50 is > 8.30.

With `Cc1c(OCCCN2CCC(O)CC2)cccc1-c1cccc2c1C[C@@H](F)[C@@H]2Oc1cc(OCc2cncc(C#N)c2)c(CN[C@@H](CO)C(=O)O)cc1Cl`, the pIC50 is > 8.30.

On to `N#Cc1cncc(COc2cc(O[C@H]3CCc4c(-c5cccc(OCCCN6CC7(C6)CC(F)(F)C7)c5Cl)cccc43)c(Cl)cc2CN[C@H]2CC[C@@H]2O)c1`, for which the pIC50 is 6.30 to 8.30.

In the case of `Cc1c(OCCCN2CCC(O)CC2)cccc1-c1cccc2c1CC[C@@H]2Oc1cc(OCc2cncc(C#N)c2)c(CNC2(C(=O)O)CCC2)cc1Cl`, the pIC50 is > 8.30.

On to `Cc1c(OCCCN2CCC(F)CC2)cccc1-c1cccc2c1CC[C@@H]2Oc1cc(OCc2cc(C#N)cc(C#N)c2)c(CN[C@H]2CCNC2=O)cc1Cl` [drawing 345], for which the pIC50 was 6.30 to 8.30.

In turn, `CCOc1cc(O[C@H]2CCc3c(-c4cccc(OCCCN5CCC5(C)C)c4C)cccc32)c(Cl)cc1CN(CC)CCC(=O)O` gave a pIC50 of 6.30 to 8.30.

Consider `CCOc1cc(O[C@H]2CCc3c(-c4cccc(OCCCN5CCC5(C)C)c4C)cccc32)c(Cl)cc1CN(C)CC(C)C(=O)OC` (stereo partly shown), for which the pIC50 is 4.70 to 6.30.

Compound `Cc1c(OCCCN2CCC(C)(F)CC2)cccc1-c1cccc2c1CC[C@@H]2Oc1cc(OCc2cc(C#N)cc(C#N)c2)c(CN[C@H]2CCC[C@@H]2O)cc1Cl` had a pIC50 of 6.30 to 8.30.

Regarding `COc1cc(O[C@H]2CCc3c(-c4cccc(OCCCN5CC(O)C5)c4Cl)cccc32)cc(OC)c1CN[C@@](C)(CO)C(=O)O`, the pIC50 is 6.30 to 8.30.

On to `Cc1c(OCCCN2CCCC[C@@H]2C)cccc1-c1cccc2c1CC[C@@H]2Oc1cc(OCc2cc(C#N)cc(C#N)c2)c(CNC[C@@H]2CCC(=O)N2)cc1Cl`, for which the pIC50 is > 8.30.

As for `CCOc1cc(O[C@H]2CCc3c(-c4cccc(OCCCN5CCC5(C)C)c4C)cccc32)c(Cl)cc1CN1CC(CC)(C(=O)O)C1`, the pIC50 was 6.30 to 8.30.

For the compound `Cc1c(OCCCN2CCCCC2(C)C)cccc1-c1cccc2c1CC[C@@H]2Oc1cc(OCc2cc(C#N)cc(C#N)c2)c(CNC[C@H]2CCC(=O)N2)cc1Cl`, the pIC50 is 6.30 to 8.30.

As for `N#Cc1cncc(COc2cc(O[C@H]3CCc4c(-c5cccc(OCCCN6CCC(O)CC6)c5Cl)cccc43)c(Cl)cc2CNC[C@@H]2CCC(=O)N2)c1`, the pIC50 is > 8.30.

Consider `N#Cc1cncc(COc2cc(O[C@H]3CCc4c(-c5cccc(OCCCN6CC(O)C6)c5Cl)cccc43)c(Cl)cc2CN2CC3(CC(O)C3)C2)c1`, for which the pIC50 was > 8.30.

The compound `CCOc1cc(O[C@H]2CCc3c(-c4cccc(OCCCN5CCC5(C)C)c4C)cccc32)c(Cl)cc1CN(C)CCCCC(=O)O` gave a pIC50 of 6.30 to 8.30.

`Cc1c(OCCCN2CCC(C)(F)C2)cccc1-c1cccc2c1CC[C@@H]2Oc1cc(OCc2cc(C#N)cc(C#N)c2)c(CN[C@H]2CCC(=O)NC2)cc1Cl` (stereo partly shown) gave a pIC50 of 6.30 to 8.30.

`Cc1c(OCCCN2CCC(F)CC2)cccc1-c1cccc2c1CC[C@@H]2Oc1cc(OCc2cc(C#N)cc(C#N)c2)c(CN[C@@H]2CCC(=O)NC2=O)cc1Cl` showed a pIC50 of 6.30 to 8.30.

On to `Cc1c(OCCCN2CCC(C)(F)CC2)cccc1-c1cccc2c1CC[C@@H]2Oc1cc(OCc2cc(C#N)cc(C#N)c2)c(CNC[C@@H]2CCC(=O)N2)cc1Cl`, for which the pIC50 is 6.30 to 8.30.

On to `N#Cc1cncc(COc2cc(O[C@H]3CCc4c(-c5cccc(OCCCN6CCC(F)CC6)c5Cl)cccc43)c(Cl)cc2CN[C@H]2CCC(=O)NC2)c1`, for which the pIC50 was > 8.30.

On to `Cc1c(OCCCN2CCC(F)CC2)cccc1-c1cccc2c1CC[C@@H]2Oc1cc(OCc2cc(C#N)cc(C#N)c2)c(CN2CC3(C2)NC(=O)NC3=O)cc1Cl`, for which the pIC50 is 6.30 to 8.30.

Turning to `C[C@@H](O)[C@H](NCc1cc(Cl)c(O[C@H]2CCc3c(-c4cccc(OCCCN5CCC(F)CC5)c4Cl)cccc32)cc1OCc1cncc(C#N)c1)C(=O)NS(C)(=O)=O`, the pIC50 is > 8.30.

Take `Cc1c(OCCCN2CC3(CC(F)C3)C2)cccc1-c1cccc2c1CC[C@@H]2Oc1cc(OCc2cc(C#N)cc(C#N)c2)c(CN[C@H]2CCC(=O)NC2)cc1Cl`: the pIC50 was > 8.30.

For the compound `CC(CO)(NCc1cc(Cl)c(O[C@H]2CCc3c(-c4cccc(OCCCN5CC(O)C5)c4Cl)cccc32)cc1OCc1cccnc1)C(=O)O` (stereo partly shown), the negative logarithm of the IC50 (pIC50) was > 8.30.

Turning to `N#Cc1cncc(COc2cc(O[C@H]3CCc4c(-c5cccc(OCCCN6CC7(CC(O)C7)C6)c5Cl)cccc43)c(Cl)cc2CN[C@@H]2CCC[C@H]2O)c1`, the pIC50 was > 8.30.

Consider `N#Cc1cncc(COc2cc(O[C@H]3CCc4c(-c5cccc(OCCCN6CC7(CC(F)C7)C6)c5Cl)cccc43)c(Cl)cc2CN2CC3(C2)NC(=O)NC3=O)c1`, for which the negative logarithm of the IC50 (pIC50) was 6.30 to 8.30.

Consider `CN(Cc1cc(Cl)c(O[C@H]2CCc3c(-c4cccc(OCCCN5CC(O)C5)c4Cl)cccc32)cc1OCc1cncc(C#N)c1)[C@@](C)(CO)C(=O)O`, for which the pIC50 is > 8.30.

As for `CCOc1cc(O[C@H]2CCc3c(-c4cccc(OCCCN5CC[C@@H](O)C5)c4C)cccc32)c(Cl)cc1CNC(C)(CO)CO`, the pIC50 was > 8.30.

As to `Cc1c(OCCCN2CCC(O)CC2)cccc1-c1cccc2c1CC[C@@H]2Oc1cc(OCc2cncc(C#N)c2)c(CN[C@@H]2CCCC[C@H]2O)cc1Cl`, the pIC50 was > 8.30.

`CCOc1cc(O[C@H]2CCc3c(-c4cccc(OCCCN5CCC5(C)C)c4C)cccc32)c(Cl)cc1CN(C)CCC(=O)OC` showed a pIC50 of 6.30 to 8.30.
